Experimental data published in patent publication US4497801A, “New peptides, process for preparation thereof and use thereof” (Fujisawa Pharmaceutical Co., Ltd., priority 1982, dated 1985).
Where a SMILES comes first, the peptide text is derived from it. [ ]: non-standard residue; d: D form. pGlu = O=C1CC[C@@H](C(=O)O)N1

Legend:
Assay type in all cases: in vivo, ICR strain mice
[1] = test system: Herpes simplex virus type 1 Miyama strain; assay: Test 6: protective effect against virus infection; conditions: 0.01 mg/kg i.p. 8, 7, 4, 3 and 2 days before i.p. HSV-1 infection; mice observed 14 days
Method: (§1) Test animals: ICR strain mice, males, 4 weeks old, 10 to 20 animals per group.
(6) Test 6 (protective effect against virus infection)
Test animals: Same as Test 5.
Administration schedule: Each peptide of this invention in aqueous solution was intraperitoneally administered 8, 7, 4, 3 and 2 days before infection (0.01 mg/kg).
(§2) Method of virus infection: Herpes simplex virus type 1 Miyama strain (concentration: 2×10^3 pfu/ml) was suspended in sterile physiological saline and 0.2 ml of the suspension was intraperitoneally inoculated.

Escherichia coli No. 22 [2] = assay: Test 1: protective effect against bacterial infection (i.p. 7, 6, 3, 2 and 1 day before infection); conditions: mice observed 4 days
Method: (1) Test 1 (protective effect against bacterial infection)
as §1
(§3) Administration schedule: The peptides of this invention in predetermined concentrations (aqueous solutions) were intraperitoneally administered 7, 6, 3, 2 and 1 day before infection.
(§4) Method of bacterial infection: Escherichia coli No. 22, cultured at 37° C. for 20 hours (concentration: 2.0×10^8 cfu/ml), was suspended in sterile physiological saline and the test mice were intraperitoneally inoculated with 0.5 ml of the suspension.

Escherichia coli No. 22 [3] = assay: Test 2: protective effect against bacterial infection (i.p. 6, 5, 4 and 1 day before infection); conditions: mice observed 4 days
Method: as §1, §4
(2) Test 2 (protective effect against bacterial infection)
(§5) Test animals: Same as Test 1.
Administration schedule: Each peptide of this invention in predetermined concentrations (aqueous solutions) was intraperitoneally administered 6, 5, 4 and 1 day before infection.
(§6) Method of bacterial infection: Same as Test 1.

Escherichia coli No. 22 [4] = assay: Test 3: protective effect against bacterial infection (i.p. 8, 7, 4, 3 and 2 days before infection); conditions: mice observed 4 days
Method: as §1, §4
(3) Test 3 (protective effect against bacterial infection)
Test animals: Same as Test 1
(§7) Administration schedule: Each peptide of this invention in predetermined concentrations (aqueous solutions) was intraperitoneally administered 8, 7, 4, 3 and 2 days before infection.
as §6

[5] = test system: Herpes simplex virus type 1 Miyama strain; assay: Test 4: protective effect against virus infection; conditions: mice observed 14 days
Source text: as §1
(4) Test 4 (protective effect against virus infection)
as §5, §7, §2

Escherichia coli No. 22 [6] = assay: Test 5: protective effect against bacterial infection (i.p. 7, 6, 3, 2 and 1 day before infection); conditions: mice observed 4 days
Method: (5) Test 5 (protective effect against bacterial infection)
as §1, §3, §4

[7] = 0.01 mg/kg i.p. 7, 6, 3, 2 and 1 day before i.p. E. coli infection
[8] = 0.1 mg/kg i.p. 7, 6, 3, 2 and 1 day before i.p. E. coli infection
[9] = 1.0 mg/kg i.p. 7, 6, 3, 2 and 1 day before i.p. E. coli infection
[10] = 1 mg/kg i.p. 6, 5, 4 and 1 day before i.p. E. coli infection
[11] = 0.01 mg/kg i.p. 8, 7, 4, 3 and 2 days before i.p. E. coli infection
[12] = 0.1 mg/kg i.p. 8, 7, 4, 3 and 2 days before i.p. E. coli infection
[13] = 1.0 mg/kg i.p. 8, 7, 4, 3 and 2 days before i.p. E. coli infection

| Compound | Survival rate (%) (Escherichia coli No. 22 [4]; [11]) | Survival rate (%) (Escherichia coli No. 22 [4]; [12]) | Survival rate (%) (Escherichia coli No. 22 [4]; [13]) | further results |
| --- | --- | --- | --- | --- |
| C[C@H](NC(=O)[C@H](CCCCN)NC(=O)[C@@H]1CCC(=O)N1)C(=O)N[C@@H](CCCCN)C(=O)N[C@@H](CCCCN)C(=O)N[C@@H](CCC(N)=O)C(=O)NCC(=O)NCC(=O)N[C@@H](CO)C(=O)N[C@@H](CC(N)=O)C(=O)O [Example 16-(4), pGlu-Lys-Ala-Lys-Lys-Gln-Gly-Gly-Ser-Asn-OH] ([pGlu]KAKKQGGSN-OH) | – | – | – | Survival rate (%) [1]: 85% |
| C[C@H](NC(=O)[C@@H]1CCC(=O)N1)C(=O)N[C@@H](CCCCN)C(=O)N[C@@H](CCCCN)C(=O)N[C@@H](CCC(N)=O)C(=O)NCC(=O)NCC(=O)N[C@@H](CO)C(=O)N[C@@H](CC(N)=O)C(=O)O [Example 17-(2), pGlu-Ala-Lys-Lys-Gln-Gly-Gly-Ser-Asn-OH] ([pGlu]AKKQGGSN-OH) | – | – | – | Survival rate (%) [1]: 90% |
| H-DLKEKKEVVEE-OH [Example 6-(2), H-Asp-Leu-Lys-Glu-Lys-Lys-Glu-Val-Val-Glu-Glu-OH] | – | – | – | Survival rate (%) (Escherichia coli No. 22 [2]; [7]): 70%; Survival rate (%) (Escherichia coli No. 22 [2]; [8]): 40%; Survival rate (%) (Escherichia coli No. 22 [2]; [9]): 60% |
| H-EKLKSELVAN-OH [Example 4-(2), H-Glu-Lys-Leu-Lys-Ser-Glu-Leu-Val-Ala-Asn-OH] | – | – | – | Survival rate (%) (Escherichia coli No. 22 [3]; [10]): 50% |
| H-EQEKQ-OH [Example 11-(2), H-Glu-Gln-Glu-Lys-Gln-OH] | 70% | 50% | 70% | – |
| H-KEKKE-OH [Example 14-(2), H-Lys-Glu-Lys-Lys-Glu-OH] | 50% | 50% | 70% | – |
| H-KETIEQEKQ-OH [Example 12-(2), H-Lys-Glu-Thr-Ile-Glu-Gln-Glu-Lys-Gln-OH] | 70% | 50% | 50% | – |
| H-KFDKSKLKKTETQE-OH [Example 10-(2), H-Lys-Phe-Asp-Lys-Ser-Lys-Leu-Lys-Lys-Thr-Glu-Thr-Gln-Glu-OH] | 50% | 60% | 70% | – |
| H-KLKSE-OH [Example 15-(2), H-Lys-Leu-Lys-Ser-Glu-OH] | 80% | 100% | 80% | – |
| H-KSKLKKTETQE-OH [Example 9-(2), H-Lys-Ser-Lys-Leu-Lys-Lys-Thr-Glu-Thr-Gln-Glu-OH] | 70% | 70% | 70% | – |
| H-NVKAKIQDKEG-OH [Example 8-(2), H-Asn-Val-Lys-Ala-Lys-Ile-Gln-Asp-Lys-Glu-Gly-OH] | 80% | 60% | 90% | – |
| H-SKLKSNSTHQ-OH [Example 1-(2), H-Ser-Lys-Leu-Lys-Ser-Asn-Ser-Thr-His-Gln-OH] | – | – | – | Survival rate (%) ([5]; 0.01 mg/kg i.p. 8, 7, 4, 3 and 2 days before i.p. HSV-1 infection): 80%; Survival rate (%) ([5]; 0.1 mg/kg i.p. 8, 7, 4, 3 and 2 days before i.p. HSV-1 infection): 40%; Survival rate (%) ([5]; 1 mg/kg i.p. 8, 7, 4, 3 and 2 days before i.p. HSV-1 infection): 60%; Survival rate (%) (Escherichia coli No. 22 [3]; 0.1 mg/kg i.p. 6, 5, 4 and 1 day before i.p. E. coli infection): 40%; Survival rate (%) (Escherichia coli No. 22 [3]; [10]): 40% |
| H-TKDLKEKKEVVEE-OH [Example 7-(2), H-Thr-Lys-Asp-Leu-Lys-Glu-Lys-Lys-Glu-Val-Val-Glu-Glu-OH] | – | – | – | Survival rate (%) (Escherichia coli No. 22 [2]; [7]): 50%; Survival rate (%) (Escherichia coli No. 22 [2]; [8]): 70%; Survival rate (%) (Escherichia coli No. 22 [2]; [9]): 40% |
| H-TKEKLKSELVAN-OH [Example 5-(2), H-Thr-Lys-Glu-Lys-Leu-Lys-Ser-Glu-Leu-Val-Ala-Asn-OH] | – | – | – | Survival rate (%) (Escherichia coli No. 22 [3]; [10]): 50% |
| pGlu-Lys-Ala-Lys-Ser-Gln-Gly-Gly-Ser-Asn-OH ([pGlu]KAKSQGGSN-OH; SMILES C[C@H](NC(=O)[C@H](CCCCN)NC(=O)[C@@H]1CCC(=O)N1)C(=O)N[C@@H](CCCCN)C(=O)N[C@@H](CO)C(=O)N[C@@H](CCC(N)=O)C(=O)NCC(=O)NCC(=O)N[C@@H](CO)C(=O)N[C@@H](CC(N)=O)C(=O)O) [Example 18-(2)] | – | – | – | Survival rate (%) (Escherichia coli No. 22 [6]; [7]): 60%; Survival rate (%) (Escherichia coli No. 22 [6]; [8]): 70%; Survival rate (%) (Escherichia coli No. 22 [6]; [9]): 80% |
